Experimental data taken from ChEMBL document CHEMBL4177610, “Discovery of a novel 2,4-dimethylquinoline-6-carboxamide M4 positive allosteric modulator (PAM) chemotype via scaffold hopping” (Bioorg Med Chem Lett, 2017).
Active and inactive are the calls of the source. The rule behind the calls is not given here.

Experiments:
[1] = Fraction unbound in human plasma; format: ADME, cell-free
[2] = Brain to plasma partition coefficient, Kp of the compound in Sprague-Dawley rat at 0.2 mg/kg, iv measured after 0.25 hrs; format: ADME, organism-based; details: brain and plasma
[3] = biological target: T1, Muscarinic acetylcholine receptor M4 (Rattus norvegicus, UniProt P08485); assay: (§1) Positive allosteric modulation of rat M4 receptor expressed in CHO cells co-expressing Gqi5 assessed as increase in acetylcholine-induced calcium mobilization; format: functional, cell-based
T1 sequence (P08485 whole entry): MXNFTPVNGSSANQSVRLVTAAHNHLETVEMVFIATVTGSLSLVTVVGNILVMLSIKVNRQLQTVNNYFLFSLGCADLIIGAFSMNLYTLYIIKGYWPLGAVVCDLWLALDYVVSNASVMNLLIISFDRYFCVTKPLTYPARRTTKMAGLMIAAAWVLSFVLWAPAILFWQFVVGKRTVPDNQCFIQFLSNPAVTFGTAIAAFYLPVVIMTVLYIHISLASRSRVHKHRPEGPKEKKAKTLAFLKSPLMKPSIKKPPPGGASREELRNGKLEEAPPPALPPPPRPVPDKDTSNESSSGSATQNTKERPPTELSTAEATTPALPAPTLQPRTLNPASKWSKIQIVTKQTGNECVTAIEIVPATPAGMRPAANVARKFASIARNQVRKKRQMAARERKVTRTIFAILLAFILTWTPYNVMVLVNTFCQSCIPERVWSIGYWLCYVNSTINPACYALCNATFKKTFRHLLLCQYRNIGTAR

[4] = Fraction unbound in rat plasma; format: ADME, cell-free
[5] = biological target: T2, Muscarinic acetylcholine receptor M4 (Rattus norvegicus) (UniProt P08485); assay: Positive allosteric modulation of rat M4 receptor expressed in CHO cells co-expressing Gqi5 assessed as increase in acetylcholine-induced calcium mobilization relative to acetylcholine; format: functional, cell-based
T2 sequence (whole entry): T1 sequence (P08485 whole entry)

[6] = Fraction unbound in rat brain; format: ADME, tissue-based
[7] = Ratio of unbound brain to plasma concentration in Sprague-Dawley rat at 0.2 mg/kg, iv measured after 0.25 hrs; format: ADME, organism-based; details: brain and plasma, read-out: K(p,uu,brain)
[8] = Intrinsic clearance in human liver microsomes; format: ADME, microsome; details: read-out: CLH
[9] = Intrinsic clearance in rat liver microsomes; format: ADME, microsome; details: read-out: CLH
[10] = biological target: T2, Muscarinic acetylcholine receptor M4 (Rattus norvegicus); assay: as §1; format: functional, cell-based

EC50 ([3]; read-out: EC50)	%max [5]	Compound	other results
449 nM	85%	Cc1cc(C)c2cc(C(=O)NC3CN(c4ccc(C(F)(F)F)nc4)C3)ccc2n1	fraction unbound [1]: 0.005; Kp at 0.25 h [2]: 0.05; fraction unbound [4]: 0.004; fraction unbound [6]: 0.016; Kp uu at 0.25 h [7]: 0.2; CLint scaled [8]: 36 mL/min/kg; CLint scaled [9]: 94 mL/min/kg
856 nM	55%	Cc1cc(C)c2cc(C(=O)NC3CN(c4ccc(F)c(F)c4)C3)ccc2n1	–
> 10000 nM	63%	COc1ccc(CNC(=O)c2ccc3nc(C)cc(C)c3c2)cc1F	–
3910 nM	66%	Cc1cc(C)c2cc(C(=O)NC3CN(c4ncc(C(F)(F)F)cn4)C3)ccc2n1	–
1130 nM	86%	Cc1cc(C)c2cc(C(=O)NC3CN(c4ccnc(OC(F)F)c4)C3)ccc2n1	–
1080 nM	77%	Cc1cc(C)c2cc(C(=O)NC3CN(c4ccc(C(F)(F)F)cn4)C3)ccc2n1	–
225 nM	44%	Cc1cc(C)c2cc(C(=O)NC3CN(c4cc(Cl)nc(Cl)c4)C3)ccc2n1	–
225 nM	–	Cc1ccc(OC2CCN(c3ncnc4ccc(F)cc34)CC2)cn1	–
820 nM	61%	Cc1cc(C)c2cc(C(=O)NC3CN(c4ccnc(C(F)(F)F)c4)C3)ccc2n1	–
6140 nM	73%	Cc1cc(C)c2cc(C(=O)NC3CN(c4ncc(OC(C)C)cn4)C3)ccc2n1	–
–	18.3%	Cc1cc(C)c2cc(C(=O)N3CCCC3)ccc2n1	pEC50 [10]: inactive; EC50 ([3]; cho): Not Active
383 nM	62%	COc1cc(N2CC(NC(=O)c3ccc4nc(C)cc(C)c4c3)C2)c(Cl)cn1	fraction unbound [1]: 0.002; Kp at 0.25 h [2]: 0.84; fraction unbound [4]: 0.002; fraction unbound [6]: 0.008; Kp uu at 0.25 h [7]: 3.36; CLint scaled [8]: 106 mL/min/kg; CLint scaled [9]: 178 mL/min/kg
1160 nM	75%	Cc1cc(C)c2cc(C(=O)NC3CN(c4cnc(C(F)(F)F)cn4)C3)ccc2n1	–
1070 nM	82%	Cc1cc(C)c2cc(C(=O)NC3CN(c4cnc(C5CC5)cn4)C3)ccc2n1	–
453 nM	82%	Cc1cc(C)c2cc(C(=O)NC3CN(c4ncc(Cl)cc4F)C3)ccc2n1	–
401 nM	72%	Cc1cc(C)c2cc(C(=O)NC3CN(c4ncc(F)cc4Cl)C3)ccc2n1	–
1060 nM	71%	Cc1cc(N2CC(NC(=O)c3ccc4nc(C)cc(C)c4c3)C2)cc(OC(F)F)n1	–
> 10000 nM	61%	Cc1cc(C)c2cc(C(=O)NC3CN(c4ncc(F)cn4)C3)ccc2n1	–
967 nM	84%	Cc1cc(C)c2cc(C(=O)NC3CN(c4ccc(Cl)cn4)C3)ccc2n1	–
587 nM	70%	Cc1cc(C)c2cc(C(=O)NC3CN(c4ncc(Cl)cc4Cl)C3)ccc2n1	–
307 nM	57%	Cc1cc(C)c2cc(C(=O)NC3CN(c4cc(Cl)ncc4Cl)C3)ccc2n1	fraction unbound [1]: 0.002; Kp at 0.25 h [2]: 0.1; fraction unbound [4]: 0.002; fraction unbound [6]: 0.006; Kp uu at 0.25 h [7]: 0.3; CLint scaled [8]: 160 mL/min/kg; CLint scaled [9]: 295 mL/min/kg
225 nM	–	COc1ccc(C)c2sc(NC(=O)c3ccncc3)nc12	–
332 nM	82%	Cc1cc(C)c2cc(C(=O)NC3CN(c4ccnc(F)c4F)C3)ccc2n1	fraction unbound [1]: 0.009; Kp at 0.25 h [2]: 0.17; fraction unbound [4]: 0.013; fraction unbound [6]: 0.023; Kp uu at 0.25 h [7]: 0.3; CLint scaled [8]: 129 mL/min/kg; CLint scaled [9]: 232 mL/min/kg
225 nM	–	COc1ccc(CNC(=O)c2sc3nnc(C)c(C)c3c2N)cc1F	–
–	43%	Cc1cc(C)c2cc(C(=O)NC3CN(c4ccc(OC(F)F)nc4)C3)ccc2n1	pEC50 [10]: inactive; EC50 ([3]; cho): Not Active
935 nM	82%	Cc1cc(C)c2cc(C(=O)NC3CN(c4ncccc4Cl)C3)ccc2n1	–
440 nM	77%	Cc1cc(C)c2cc(C(=O)NC3CN(c4cccc(Cl)n4)C3)ccc2n1	–

Compound	EC50 ([3]; read-out: EC50)	%max [5]	other results
COc1nc2sc(C(=O)NC3CC3)c(N)c2c(C)c1Cl	225 nM	–	–
